# According to PubChem BioAssay (NCI):
#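 Here, GI50 denotes the concentration required for 50% inhibition of growth. TGI marks complete inhibition of growth.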
# What was measured:
# Assay in all cases: DTP human tumour cell line panel, 384-well format
# SK-MEL-28 melanoma = test system: SK-MEL-28 melanoma
# MALME-3M melanoma = test system: MALME-3M melanoma
# RPMI-8226 leukemia = test system: RPMI-8226 leukemia
# SF-539 CNS = test system: SF-539 CNS
# SK-MEL-5 melanoma = test system: SK-MEL-5 melanoma
# HCT-116 colon = test system: HCT-116 colon
# HOP-62 NSCLC = test system: HOP-62 NSCLC
# SR leukemia = test system: SR leukemia
# TK-10 renal = test system: TK-10 renal
# HCT-15 colon = test system: HCT-15 colon
# M14 melanoma = test system: M14 melanoma
# BT-549 breast = test system: BT-549 breast
# UACC-257 melanoma = test system: UACC-257 melanoma
# NCI-H226 lung = test system: NCI-H226 lung
# LOX IMVI melanoma = test system: LOX IMVI melanoma
# HS 578T breast = test system: HS 578T breast
# SNB-75 CNS = test system: SNB-75 CNS
# SK-OV-3 ovarian = test system: SK-OV-3 ovarian
# RXF 393 renal = test system: RXF 393 renal
# NCI/ADR-RES ovarian = test system: NCI/ADR-RES ovarian
# HCC-2998 colon = test system: HCC-2998 colon
# UO-31 renal = test system: UO-31 renal
# SF-295 CNS = test system: SF-295 CNS
# SF-268 CNS = test system: SF-268 CNS
# EKVX NSCLC = test system: EKVX NSCLC
# NCI-H23 lung = test system: NCI-H23 lung
# COLO 205 colon = test system: COLO 205 colon
# HT29 colon = test system: HT29 colon
# HL-60(TB) leukemia = test system: HL-60(TB) leukemia
# MDA-MB-231 breast = test system: MDA-MB-231 breast
# SW-620 colon = test system: SW-620 colon
# MCF7 breast = test system: MCF7 breast
# NCI-H322M lung = test system: NCI-H322M lung
# MDA-MB-435 melanoma = test system: MDA-MB-435 melanoma
# MOLT-4 leukemia = test system: MOLT-4 leukemia
# HOP-92 NSCLC = test system: HOP-92 NSCLC
# MDA-MB-468 breast = test system: MDA-MB-468 breast
# SN12C renal = test system: SN12C renal
# OVCAR-8 ovarian = test system: OVCAR-8 ovarian
# OVCAR-4 ovarian = test system: OVCAR-4 ovarian
# CAKI-1 renal = test system: CAKI-1 renal
# ACHN renal = test system: ACHN renal
# NCI-H460 NSCLC = test system: NCI-H460 NSCLC
# KM12 colon = test system: KM12 colon
# IGROV1 ovarian = test system: IGROV1 ovarian
# A498 renal = test system: A498 renal
# U251 glioblastoma = test system: U251 glioblastoma
# OVCAR-5 ovarian = test system: OVCAR-5 ovarian
# NCI-H522 lung = test system: NCI-H522 lung
# K-562 leukemia = test system: K-562 leukemia
# PC-3 prostate = test system: PC-3 prostate
# A549 NSCLC = test system: A549 NSCLC
# OVCAR-3 ovarian = test system: OVCAR-3 ovarian
# DU-145 prostate = test system: DU-145 prostate
# SNB-19 CNS = test system: SNB-19 CNS
# T-47D breast = test system: T-47D breast
# 786-0 renal = test system: 786-0 renal
# CCRF-CEM leukemia = test system: CCRF-CEM leukemia
smiles,measurement,setting,value
COC[C@H]1OC(=O)c2coc3c2[C@@]1(C)C1=C(C3=O)[C@@H]2CCC(=O)[C@@]2(C)C[C@H]1OC(C)=O,GI50,SK-MEL-28 melanoma,9.73 µM
same,TGI,SK-MEL-28 melanoma,> 100 µM
same,GI50,MALME-3M melanoma,3.9 µM
same,TGI,MALME-3M melanoma,42.4 µM
same,GI50,RPMI-8226 leukemia,2390 nM
same,TGI,RPMI-8226 leukemia,9.89 µM
same,GI50,SF-539 CNS,22.5 µM
same,TGI,SF-539 CNS,> 100 µM
same,GI50,SK-MEL-5 melanoma,4.21 µM
same,TGI,SK-MEL-5 melanoma,27.9 µM
same,GI50,HCT-116 colon,16.8 µM
same,TGI,HCT-116 colon,> 100 µM
same,GI50,HOP-62 NSCLC,10.9 µM
same,TGI,HOP-62 NSCLC,> 100 µM
same,GI50,SR leukemia,1280 nM
same,TGI,SR leukemia,4.28 µM
same,GI50,TK-10 renal,12 µM
same,TGI,TK-10 renal,> 100 µM
same,GI50,HCT-15 colon,11.4 µM
same,TGI,HCT-15 colon,> 100 µM
same,GI50,M14 melanoma,18.2 µM
same,TGI,M14 melanoma,> 100 µM
same,GI50,BT-549 breast,3.31 µM
same,TGI,BT-549 breast,42.8 µM
same,GI50,UACC-257 melanoma,13.6 µM
same,TGI,UACC-257 melanoma,> 100 µM
same,GI50,NCI-H226 lung,12.5 µM
same,TGI,NCI-H226 lung,> 100 µM
same,GI50,LOX IMVI melanoma,21.1 µM
same,TGI,LOX IMVI melanoma,> 100 µM
same,GI50,HS 578T breast,1600 nM
same,TGI,HS 578T breast,12.8 µM
same,GI50,SNB-75 CNS,1340 nM
same,TGI,SNB-75 CNS,11.7 µM
same,GI50,SK-OV-3 ovarian,8.24 µM
same,TGI,SK-OV-3 ovarian,> 100 µM
same,GI50,RXF 393 renal,281 nM
same,TGI,RXF 393 renal,1820 nM
same,GI50,NCI/ADR-RES ovarian,25 µM
same,TGI,NCI/ADR-RES ovarian,> 100 µM
same,GI50,HCC-2998 colon,3.91 µM
same,TGI,HCC-2998 colon,44.6 µM
same,GI50,UO-31 renal,3.33 µM
same,TGI,UO-31 renal,> 100 µM
same,GI50,SF-295 CNS,7.25 µM
same,TGI,SF-295 CNS,> 100 µM
same,GI50,SF-268 CNS,4.4 µM
same,TGI,SF-268 CNS,67.9 µM
same,GI50,EKVX NSCLC,5.6 µM
same,TGI,EKVX NSCLC,> 100 µM
same,GI50,NCI-H23 lung,22.1 µM
same,TGI,NCI-H23 lung,> 100 µM
same,GI50,COLO 205 colon,26.7 µM
same,TGI,COLO 205 colon,> 100 µM
same,GI50,HT29 colon,7.88 µM
same,TGI,HT29 colon,> 100 µM
same,GI50,HL-60(TB) leukemia,975 nM
same,TGI,HL-60(TB) leukemia,2740 nM
same,GI50,MDA-MB-231 breast,17.6 µM
same,TGI,MDA-MB-231 breast,> 100 µM
same,GI50,SW-620 colon,28.8 µM
same,TGI,SW-620 colon,> 100 µM
same,GI50,MCF7 breast,1340 nM
same,TGI,MCF7 breast,> 100 µM
same,GI50,NCI-H322M lung,6.91 µM
same,TGI,NCI-H322M lung,> 100 µM
same,GI50,MDA-MB-435 melanoma,24.7 µM
same,TGI,MDA-MB-435 melanoma,> 100 µM
same,GI50,MOLT-4 leukemia,2300 nM
same,TGI,MOLT-4 leukemia,13.6 µM
same,GI50,HOP-92 NSCLC,6.12 µM
same,TGI,HOP-92 NSCLC,> 100 µM
same,GI50,MDA-MB-468 breast,1460 nM
same,TGI,MDA-MB-468 breast,7.84 µM
same,GI50,SN12C renal,11 µM
same,TGI,SN12C renal,> 100 µM
same,GI50,OVCAR-8 ovarian,14.7 µM
same,TGI,OVCAR-8 ovarian,> 100 µM
same,GI50,OVCAR-4 ovarian,2360 nM
same,TGI,OVCAR-4 ovarian,> 100 µM
same,GI50,CAKI-1 renal,7.96 µM
same,TGI,CAKI-1 renal,> 100 µM
same,GI50,ACHN renal,7.99 µM
same,TGI,ACHN renal,> 100 µM
same,GI50,NCI-H460 NSCLC,7.17 µM
same,TGI,NCI-H460 NSCLC,> 100 µM
same,GI50,KM12 colon,15.4 µM
same,TGI,KM12 colon,> 100 µM
same,GI50,IGROV1 ovarian,1180 nM
same,TGI,IGROV1 ovarian,11.3 µM
same,GI50,A498 renal,4.52 µM
same,TGI,A498 renal,54.3 µM
same,GI50,U251 glioblastoma,67.4 µM
same,TGI,U251 glioblastoma,> 100 µM
same,GI50,OVCAR-5 ovarian,15.4 µM
same,TGI,OVCAR-5 ovarian,> 100 µM
same,GI50,NCI-H522 lung,20.3 µM
same,TGI,NCI-H522 lung,> 100 µM
same,GI50,K-562 leukemia,71.9 µM
same,TGI,K-562 leukemia,> 100 µM
same,GI50,PC-3 prostate,1440 nM
same,TGI,PC-3 prostate,> 100 µM
same,GI50,A549 NSCLC,7.24 µM
same,TGI,A549 NSCLC,> 100 µM
same,GI50,OVCAR-3 ovarian,2740 nM
same,TGI,OVCAR-3 ovarian,32.1 µM
same,GI50,DU-145 prostate,25.2 µM
same,TGI,DU-145 prostate,> 100 µM
same,GI50,SNB-19 CNS,50.2 µM
same,TGI,SNB-19 CNS,> 100 µM
same,GI50,T-47D breast,4.32 µM
same,TGI,T-47D breast,60.3 µM
same,GI50,786-0 renal,26.3 µM
same,TGI,786-0 renal,> 100 µM
same,GI50,CCRF-CEM leukemia,7.05 µM
same,TGI,CCRF-CEM leukemia,30.6 µM
